The test system of the first assay is immunoglobulin light chain protein WIL-FL T46L. The experiment in a line: Differential scanning fluorimetry (thermal shift) assay. The format is binding. The conditions noted are these: Table A; temperature shift [Tm]compound-[Tm]vehicle; recombinant WIL-FL T46L. (In general: In DSF a fluorescence change marks the thermal transition of the protein.)
Turning to `COc1ccc([C@@]2(C)CCN(c3cc(C)c4nc(C(=O)N5CC[C@@]6(CCN(c7cccc(C(=O)O)n7)C6)C5)nn4c3)C2)cc1` [Compound 411], the DSF result is given as “***** (>2.5° C.=*****)”.
The same measure, in the same setting: as for `C[C@]1(c2ccccc2)CCN(c2cc(CN)c3nc(C(=O)N4CC[C@@]5(CCN(c6cccc(C(=O)O)n6)C5)C4)nn3c2)C1` [Compound 345], the entry is “***** (>2.5° C.=*****)”.
Still for that read-out and setting: under `COc1cc(N2CC[C@](C)(c3ccccc3)C2)cn2nc(C(=O)N3CC[C@@]4(CCN(c5cccc(C(=O)O)n5)C4)C3)nc12` [Compound 294] stands “***** (>2.5° C.=*****)”.
For `CCC1(c2ccccc2)CN(c2cc(C)c3nc(C(=O)NC)nn3c2)C1` [Compound 33, 6-(3-ethyl-3-phenyl-azetidin-1-yl)-N, 8-dimethyl-[1,2,4]triazolo[1,5-a]pyridine-2-carboxamide], the DSF entry is “***** (>2.5° C.=*****)”.
Turning to `Cc1nsc(C2(C)CCN(c3cc(C)c4nc(C(=O)N5C[C@@H]6CN(c7cccc(C(=O)O)n7)C[C@@H]6C5)nn4c3)C2)n1` (stereo partly drawn) [Compound 299], the DSF result is listed as “*** (>1-1.5° C.=***)”.
`CNC(=O)c1nn2cc(N3CC[C@](C)(c4ccccc4)C3)cc(C)c2c1COC` [Compound 333]: the DSF entry is listed as “***** (>2.5° C.=*****)”.
Take `Cc1cc(N2CC[C@](C)(c3ccccc3)C2)cn2nc(C(=O)N3CCOCC34CN(c3cccc(C(=O)O)n3)C4)nc12` [Compound 259]: the DSF result is “***** (>2.5° C.=*****)”.
The same measure, in the same setting: under `Cc1cc(N2CC[C@](C)(c3ccccc3)C2)cn2nc(C(=O)N3CC4(CCN(c5cccc(C(=O)O)n5)C4)C3)nc12` [Compound 240] stands “***** (>2.5° C.=*****)”; under `CNS(=O)(=O)c1nc2c(C)cc(N3CC[C@](C)(c4ccccc4)C3)cn2n1` [Compound 324], “***** (>2.5° C.=*****)”; under `Cc1cc(N2CC[C@](C)(c3ccccc3)C2)cn2nc(C(=O)NC3CC4CCC(C3)N4)nc12` (stereo partly drawn) [Compound 199], “***** (>2.5° C.=*****)”.
The same measure, in the same setting: as for `Cc1cc(N2CC[C@](C)(c3ccccc3)C2)cn2nc(C(=O)N3CCC(N4CC5C(C4)C5C(=O)O)CC3)nc12` (stereo partly drawn) [Compound 366], the entry is “***** (>2.5° C.=*****)”; as for `CNC(=O)C12COC(c3nc4c(C)cc(N5CC[C@](C)(c6ccccc6)C5)cn4n3)(C1)C2c1n[nH]c(C)n1` (stereo partly drawn) [Compound 41], “***** (>2.5° C.=*****)”.
Same read-out and setting: as for `Cc1cc(N2CC[C@](C)(c3ccccc3)C2)cn2nc(C(=O)N3CC[C@@]4(CCN(C5CCC(C(=O)O)CC5)C4)C3)nc12` (stereo partly drawn) [Compound 376], the entry is “***** (>2.5° C.=*****)”; as for `C[C@]1(c2ccccc2)CCN(c2cc(CO)c3nc(C(=O)NC4CC5(CCC5N5CC6C(C5)C6C(=O)O)C4)nn3c2)C1` (stereo partly drawn) [Compound 346], “***** (>2.5° C.=*****)”.
On to `Cc1cc(N2CC[C@](C)(c3ccccc3)C2)cn2nc(C(=O)N3CC[C@]4(CCN(c5cc(C(=O)O)ccn5)C4)C3)nc12` [Compound 270], for which the DSF result is “***** (>2.5° C.=*****)”.
Same read-out and setting: as for `Cc1cc(N2CC3(CCC3c3ccccc3)C2)cn2nc(C(=O)N3C[C@@H]4CN(c5cccc(C(=O)O)n5)C[C@@H]4C3)nc12` (stereo partly drawn) [Compound 291], the entry is “***** (>2.5° C.=*****)”.

The assay is the same for the next values; noted with them: Table B; temperature shift [Tm]compound-[Tm]vehicle; recombinant WIL-FL T46L.
For `Cc1cc(N2CC[C@](C)(c3ccccc3)C2)cn2nc(C34CC(CO3)C4c3nc(NS(=O)(=O)[C@H]4CC[C@H](C(=O)O)CC4)n[nH]3)nc12` (stereo partly drawn) [Compound 562], the DSF result is “***** (>2.5° C.=*****)”.
With `Cc1ccc(N2CCC3(CCN(C(=O)c4nc5c(C)cc(N6CC[C@](C)(c7ccccc7)C6)cn5n4)C3)C2)nc1C(=O)O` (stereo partly drawn) [Compound 627], the DSF result was “***** (>2.5° C.=*****)”.
On to `Cc1ccc(C(=O)O)nc1N1CCC2(CCN(C(=O)c3nc4c(C)cc(N5CC[C@](C)(c6ccccc6)C5)cn4n3)C2)C1` (stereo partly drawn) [Compound 692], for which the DSF entry is recorded as “***** (>2.5° C.=*****)”.
Same read-out and setting: as for `Cc1n[nH]c(C2C3(CO)COC2(c2nc4c(C)cc(N5CC6(CCC6c6ccccc6)C5)cn4n2)C3)n1` (stereo not drawn) [Compound 578, [1-[8-methyl-6-(7-phenyl-2-azaspiro[3.3]heptan-2-yl)-[1,2,4]triazolo[1,5-a]pyridin-2-yl]-5-(3-methyl-1H1,2,4-triazol-5-yl)-2-oxabicyclo[2.1.1]hexan-4-yl]methanol], the entry is “***** (>2.5° C.=*****)”.
Same read-out and setting: as for `Cc1cc(N2CC[C@](C)(c3ccccc3)C2)cn2nc(C(=O)NC3CC4(C3)CN(c3ccnc(C(=O)O)c3)C4)nc12` [Compound 691, (R)-4-(6-(8-methyl-6-(3-methyl-3-phenylpyrrolidin-1-yl)-[1,2,4]triazolo[1,5-a]pyridine-2-carboxamido)-2-azaspiro[3.3]heptan-2-yl)picolinic acid], the entry is “***** (>2.5° C.=*****)”; as for `Cc1cc(N2CC[C@](C)(c3ccccc3)C2)cn2nc(C(=O)N3CC[C@@]4(CCN(C(=O)C56CCCC(C(=O)O)(C5)C6)C4)C3)nc12` [Compound 733, 5-((R)-7-(8-methyl-6-((R)-3-methyl-3-phenylpyrrolidin-1-yl)-[1,2,4]triazolo[1,5-a]pyridine-2-carbonyl)-2,7-diazaspiro[4.4]nonane-2-carbonyl)bicyclo[3.1.1]heptane-1-carboxylic acid], “***** (>2.5° C.=*****)”; as for `Cc1cc(N2CC[C@](C)(c3ccccc3)C2)cn2nc(C(=O)N3CCC4(CCN(c5cnnc(C(=O)O)c5)C4)C3)nc12` (stereo partly drawn) [Compound 730, 5-(7-(8-methyl-6-((R)-3-methyl-3-phenylpyrrolidin-1-yl)-[1,2,4]triazolo[1,5-a]pyridine-2-carbonyl)-2,7-diazaspiro[4.4]nonan-2-yl)pyridazine-3-carboxylic acid], “***** (>2.5° C.=*****)”.
The same measure, in the same setting: under `Cc1cc(N2CC[C@](C)(c3ccccc3)C2)cn2nc(C(=O)N3CC(C(=O)O)C4(COC4)C3)nc12` (stereo partly drawn) [Compound 603] stands “***** (>2.5° C.=*****)”; under `Cc1cc(N2CC[C@](C)(c3ccccc3)C2)cn2nc(C(=O)N3CCC34CN(c3cccc(C(=O)O)n3)C4)nc12` [Compound 615], “**** (>1.5-2.5° C.=****)”.
As to `Cc1cc(N2CC[C@](C)(c3ccccc3)C2)cn2nc(C(=O)N3CC4CN(c5cccc(C(=O)O)n5)CC4(C#N)C3)nc12` (stereo partly drawn) [Compound 636, 6-[3a-cyano-5-[8-methyl-6-[(3R)-3-methyl-3-phenyl-pyrrolidin-1-yl]-[1,2,4]triazolo[1,5-a]pyridine-2-carbonyl]-3,4,6,6a-tetrahydro-1H-pyrrolo[3,4-c]pyrrol-2-yl]pyridine-2-carboxylic acid], the DSF result was “***** (>2.5° C.=*****)”.
As for `Cc1cc(N2CC[C@](C)(c3ccccc3)C2)cn2nc(C(=O)N3C[C@@H]4[C@@H](C(=O)O)CO[C@@H]4C3)nc12` [Compound 595], the DSF result was “***** (>2.5° C.=*****)”.
Take `COc1cc(N2CCC3(CCN(C(=O)c4nc5c(C)cc(N6CC[C@](C)(c7ccccc7)C6)cn5n4)C3)C2)cc(C(=O)O)n1` (stereo partly drawn) [Compound 619]: the DSF result was “***** (>2.5° C.=*****)”.
The same measure, in the same setting: as for `Cc1cc(N2CC[C@](C)(c3ccccc3)C2)cn2nc(C34CC(CO3)C4CN3CCC(C(=O)O)CC3=O)nc12` (stereo partly drawn) [Compound 490], the entry is “***** (>2.5° C.=*****)”.
Consider `Cc1cc(N2CC[C@](C)(c3ccccc3)C2)cn2nc(C(=O)NC3CCN(c4cccc(S(C)(=N)=O)n4)CC3)nc12` (stereo partly drawn) [Compound 608, 8-methyl-6-[(3R)-3-methyl-3-phenyl-pyrrolidin-1-yl]-N-[1-[6-(methylsulfonimidoyl)-2-pyridyl]-4-piperidyl]-[1,2,4]triazolo[1,5-a]pyridine-2-carboxamide], for which the DSF result is recorded as “***** (>2.5° C.=*****)”.

The values are drawn from patent US20260285857A1, “BICYCLIC AND HETEROCYCLIC AMIDE COMPOUNDS” (priority 2024, published 2026).
